For ten compounds, GI50 and TGI results are on record in PubChem BioAssay (NCI).

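Compound exposure: 48 hours, 5 concentrations, 96-well plates. Abbreviation: GI50, concentration required for 50% inhibition of growth. Definition used: TGI = concentration required for complete inhibition of growth.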

Test systems include SNB-75 CNS; SK-MEL-5 melanoma; SN12C renal; HCT-116 colon; SNB-19 CNS; IGROV1 ovarian; SF-539 CNS; OVCAR-3 ovarian; NCI-H522 lung.
Experiment in all cases: inhibition of tumour cell growth, NCI panel, 48 h

For the compound `CCCCCCCCCCCCn1c(C)nc2ccccc21`, the GI50 in the assay on SNB-75 CNS was 16.2 µM; in the assay on SK-MEL-5 melanoma, 0.984 µM; with SN12C renal, 14.4 µM; with HCT-116 colon, 0.712 µM; in the assay with SNB-19 CNS it was 13.5 µM; with IGROV1 ovarian, 14.7 µM. The GI50 was 13.7 µM in the assay on SF-539 CNS and 14.7 µM in the assay with OVCAR-3 ovarian. In addition, the TGI with SNB-75 CNS was determined as 30.3 µM; in the assay on SK-MEL-5 melanoma, 18.2 µM; in the assay with SN12C renal, 31.1 µM; in the assay on HCT-116 colon, 13 µM; in the assay with SNB-19 CNS, 26.3 µM; in the assay with IGROV1 ovarian, 28.3 µM. The TGI in the assay on SF-539 CNS stood at 27 µM; in the assay with OVCAR-3 ovarian, 30.2 µM.
As to `COc1ccc2c(c1)CCC1C2CC[C@@]2(C)C1CC[C@@]2(O)CNC(=O)/C=C/c1ccc(O)c(OC)c1` (some centres undefined), the GI50 with SNB-75 CNS is 26.6 µM; in the assay with SK-MEL-5 melanoma, 18.2 µM; in the assay on SN12C renal, 24.3 µM; with HCT-116 colon it was 19 µM; in the assay on SNB-19 CNS, 27.8 µM; in the assay with IGROV1 ovarian, 4.66 µM. Moreover, the GI50 was 37.5 µM in the assay on OVCAR-3 ovarian and 19.9 µM in the assay with NCI-H522 lung. In addition, the TGI was more than 100 µM with SNB-75 CNS; 46.6 µM in the assay with SK-MEL-5 melanoma; more than 100 µM in the assay with SN12C renal; more than 100 µM in the assay with HCT-116 colon; more than 100 µM in the assay on SNB-19 CNS; more than 100 µM in the assay with IGROV1 ovarian. The results for the TGI in the assay with SF-539 CNS, in the assay with OVCAR-3 ovarian and in the assay on NCI-H522 lung were 19.3 µM, more than 100 µM and more than 100 µM, respectively.
Consider `O=C(c1ccccc1)C1C(C(=O)c2ccccc2)N1Cc1ccccc1` (centres undefined), for which the TGI is 57.1 µM in the assay on SNB-75 CNS; 36.7 µM in the assay on SK-MEL-5 melanoma; 95.1 µM in the assay with SN12C renal; more than 100 µM with SNB-19 CNS; more than 100 µM with IGROV1 ovarian; 99.2 µM with OVCAR-3 ovarian. In the assay with NCI-H522 lung, this compound registered a TGI of 74.6 µM.
As for `C(=N\Nc1nnc2c(n1)[nH]c1ccccc12)/c1cccnc1`, the TGI with SNB-75 CNS, with SK-MEL-5 melanoma, in the assay on SN12C renal, in the assay with HCT-116 colon, in the assay with SNB-19 CNS and in the assay with IGROV1 ovarian was more than 100 µM throughout. Also, the TGI with SF-539 CNS, with OVCAR-3 ovarian and in the assay on NCI-H522 lung was more than 100 µM throughout.
Take `Cn1c2ccccc2c(=Nc2ccccc2)c2c3ccccc3[nH]c21`: the GI50 with SK-MEL-5 melanoma was 0.787 µM; in the assay on SN12C renal it was 1.24 µM; with HCT-116 colon, 1.26 µM; in the assay on IGROV1 ovarian, 1.64 µM; in the assay with SF-539 CNS, 1.17 µM; in the assay on NCI-H522 lung, 2.29 µM. Besides, the TGI in the assay with SK-MEL-5 melanoma is 2.06 µM; in the assay on SN12C renal, 3.11 µM; in the assay with HCT-116 colon it was 2.52 µM; with IGROV1 ovarian it was more than 100 µM; in the assay with SF-539 CNS, 2.46 µM; in the assay with NCI-H522 lung it was more than 100 µM.
For the compound `COc1ccc(/C=C2\Cc3ccccc3C2=O)cc1OC`, the TGI in the assay with SK-MEL-5 melanoma, in the assay on SN12C renal, in the assay on SNB-19 CNS, in the assay on IGROV1 ovarian, with OVCAR-3 ovarian and in the assay on NCI-H522 lung was more than 100 µM each time.
Regarding `COc1ccc(/C(C)=C(\c2ccc(Cl)cc2)c2ccc(OCCN3CCCC3)cc2)cc1`, the GI50 was 4.29 µM in the assay on SNB-75 CNS; 1.26 µM with SK-MEL-5 melanoma; 4.9 µM with SN12C renal; 1.55 µM with HCT-116 colon; 4.54 µM in the assay with SNB-19 CNS; 4.13 µM in the assay on IGROV1 ovarian. For the same compound, the GI50 with SF-539 CNS was 4.32 µM; in the assay with OVCAR-3 ovarian, 5.16 µM; with NCI-H522 lung, 4.39 µM. Also, the TGI in the assay on SNB-75 CNS came to 8.58 µM; with SK-MEL-5 melanoma, 4.64 µM; with SN12C renal, 9.63 µM; in the assay on HCT-116 colon, 5.78 µM; in the assay with SNB-19 CNS, 9.09 µM; with IGROV1 ovarian it was 8.91 µM. Also, the TGI in the assay on SF-539 CNS amounted to 8.59 µM; in the assay on OVCAR-3 ovarian, 9.79 µM; in the assay on NCI-H522 lung it was 9.11 µM.
For the compound `COC(=O)C[CH](C(=O)OC)[Ge]([CH3])([CH3])[S]c1ccccc1` (centres undefined), the GI50 in the assay with SNB-75 CNS was 22.1 µM; with SK-MEL-5 melanoma it was 33.1 µM; with SN12C renal, 16 µM; with HCT-116 colon it was 27.9 µM; in the assay on SNB-19 CNS it was 19.5 µM; with IGROV1 ovarian, 0.463 µM. Further, the GI50 in the assay on SF-539 CNS is 22.1 µM; with OVCAR-3 ovarian it was 15.1 µM; in the assay with NCI-H522 lung, 2.94 µM. Besides, the TGI was 72.2 µM in the assay with SNB-75 CNS; more than 100 µM in the assay with SK-MEL-5 melanoma; 32 µM in the assay on SN12C renal; 58.2 µM with HCT-116 colon; 49.9 µM in the assay on SNB-19 CNS; 2.2 µM in the assay with IGROV1 ovarian. In addition, the TGI in the assay on SF-539 CNS is 39.7 µM; in the assay with OVCAR-3 ovarian it was 38.8 µM; with NCI-H522 lung, 10.3 µM.
Consider `S=c1nc(-c2ccccc2)oc(=NC2CCCCC2)n1C1CCCCC1`, for which the GI50 in the assay with SNB-75 CNS was 4.65 µM; in the assay with SK-MEL-5 melanoma, 2.62 µM; in the assay with SN12C renal, 3.94 µM; in the assay with HCT-116 colon it was 4.19 µM; in the assay with SNB-19 CNS, 5.05 µM; with IGROV1 ovarian it was 3 µM. The values for the GI50 in the assay on SF-539 CNS, with OVCAR-3 ovarian and in the assay with NCI-H522 lung were 5.73 µM, 3.54 µM and 4.8 µM, respectively. The TGI in the assay on SNB-75 CNS was 17.5 µM; with SK-MEL-5 melanoma it was 9.87 µM; with SN12C renal, 18.7 µM; in the assay with HCT-116 colon it was 17.1 µM; in the assay on SNB-19 CNS it was 17.4 µM; in the assay with IGROV1 ovarian it was 8.13 µM. The TGI in the assay with SF-539 CNS turned out to be 20.4 µM; in the assay with OVCAR-3 ovarian, 11.3 µM; in the assay on NCI-H522 lung, 18.3 µM.
With `Oc1ccc2oc3ncc(Cl)c(-c4ccccc4)c3c2c1`, the GI50 with SNB-75 CNS, in the assay on SK-MEL-5 melanoma, with SN12C renal, with HCT-116 colon, in the assay on SNB-19 CNS and with IGROV1 ovarian was more than 100 µM throughout. The GI50 with SF-539 CNS, in the assay with OVCAR-3 ovarian and with NCI-H522 lung was more than 100 µM in each case. The TGI in the assay on SNB-75 CNS, with SK-MEL-5 melanoma, in the assay with SN12C renal, in the assay with HCT-116 colon, in the assay on SNB-19 CNS and with IGROV1 ovarian was more than 100 µM throughout. The TGI with SF-539 CNS, with OVCAR-3 ovarian and with NCI-H522 lung was more than 100 µM throughout.
